Data published in patent US11934044B2, “WS12-releasing contact lens” (CooperVision International Limited, priority 2021, dated 2024).

Test: WS12 leaching from lens into PBS packaging solution during autoclave (HPLC)
Type: physicochemical
Conditions: standard contact lens sterilization and storage conditions
Method: Silicone hydrogel contact lenses were prepared by curing the formulation for stenfilcon A in contact lens molds. The cured stenfilcon A was removed from the molds and extracted by immersing them for 215 minutes in ethanol (EtOH) containing WS12 (Tocris Bioscience) in the loading concentrations shown in Table I. The lenses were removed from the EtOH and washed in DI water for approximately 6 minutes, followed by two exchanges of DI water for approximately 30 minutes each. The lenses were transferred to 6 mL glass vials containing 3 mL phosphate buffered saline at pH 7.5 (0.78 wt. % NaCl, 0.05 wt. % sodium phosphate monobasic, and 0.36 wt. % sodium phosphate dibasic), referred to herein as PBS. The vials were sealed and autoclaved.
Each autoclaved lens was transferred to a vial containing 3 ml EtOH and stored overnight on a 150 rpm shaker at room temperature to extract WS12 from the lens. The EtOH extracts and the PBS in which the lenses were autoclaved were submitted for analysis by HPLC (detection wavelength=250 nm) against calibration standards to determine the average amount of WS12 loaded into each (n=5) and whether the WS12 leaches from the lens during autoclave.

- stability of WS12 in hydrogel lens material during sterilization and storage: without degradation or leaching
SMILES: COc1ccc(NC(=O)C2CC(C)CCC2C(C)C)cc1 (stereo not shown) [WS12, N-(4-Methoxyphenyl)-5-methyl-2-(1-methylethyl)cyclohexanecarboxamide]
